Data: paper PMC6844382, “Design, synthesis and evaluation of quinolinone derivatives containing dithiocarbamate moiety as multifunctional AChE inhibitors for the treatment of Alzheimer’s disease” (Journal of Enzyme Inhibition and Medicinal Chemistry, 2019)
“Also recorded” adds a separate entry of the source.

Key:
[1] = biological target: T1, eeAChE (Electrophorus electricus, UniProt O42275); assay: In vitro inhibition of eeAChE (Ellman method); format: biochemical, electric eel
T1 construct: eeAChE (from electric eel); purchased Sigma-Aldrich (St. Louis, MO, USA); host or cells: electric eel
Procedure: (§1) The in vitro inhibitory activities of test compounds against AChE and BuChE were determined by the spectrophotometric method of Ellman[25]. […] For each assay, 160 μL of 1.5 mM DTNB, 50 μL of AChE (0.22 U/mL for eeAChE; 0.05 U/mL for hAChE) or eqBuChE (0.12 U/mL) were incubated with 10 μL of different concentrations of test compounds at 37 °C for 6 min.

[2] = biological target: T2, eqBuChE (Equus caballus, UniProt P81908); assay: In vitro inhibition of eqBuChE (Ellman method); format: biochemical, equine; details: read-out: eqBuChE Inhibition (%)
T2 construct: eqBuChE (from equine serum); purchased Sigma-Aldrich (St. Louis, MO, USA); host or cells: equine serum
Procedure: as §1

[3] = biological target: T3, AChE-induced Aβ1-42 aggregation (Electrophorus electricus, UniProt O42275); assay: Inhibition of AChE-induced Aβ1-42 aggregation (ThT assay); format: biochemical; details: inhibitor 100 μM; thioflavin-T fluorescence
T3 construct: eeAChE (from electric eel); purchased eeAChE: Sigma-Aldrich (St. Louis, MO, USA); Aβ1-42: Royobiotech Co., Ltd (Shanghai, China)
Procedure: 1, 1, 1, 3, 3, 3-hexafluoro-2-propanol (HFIP) and Thioflavin T (ThT) were obtained from TCI (Shanghai) Development. β-Amyloid1-42 (Aβ1-42), supplied as trifluoroacetate salt, and eeAChE were purchased from Royobiotech Co., Ltd (Shanghai, China) and Sigma-Aldrich (St. Louis, MO, USA), respectively. For co-incubation experiments, aliquots of Aβ1-42 peptide and AChE in presence or absence of the test compounds were incubated for 48 h at 37 °C. […] The percent inhibition of the AChE-induced Aβ aggregation due to the presence of inhibitor was calculated by the following formula: 100 – (IFi/IFo*100), where IFi and IFo are the fluorescence intensities obtained for Aβ1-42 aggregation in the presence and in the absence of inhibitor, respectively. Each assay was run in triplicate and each reaction was repeated at least three independent times.

[4] = biological target: T4, self-induced Aβ1-42 aggregation (Homo sapiens, UniProt P05067); assay: Inhibition of self-induced Aβ1-42 aggregation (ThT assay); format: biochemical; details: read-out: Inhibition of Aβ1–42 aggregation (%) Self-induced
T4 construct: Aβ1-42 was obtained from Royobiotech Co., Ltd (Shanghai, China); purchased Royobiotech Co., Ltd (Shanghai, China)
Procedure: The inhibitory activities of compounds 4c-f and 9a-b on self-induced Aβ1-42 aggregation were also measured by the ThT assay. HFIP and ThT were purchased from TCI (Shanghai) Development. Aβ1-42 was obtained from Royobiotech Co., Ltd (Shanghai, China). The monomeric Aβ1-42 samples were prepared by HFIP and diluted with a 50 mM phosphate buffer (pH 7.4) to give a 25 μM solution. The test compound was dissolved in DMSO (250 μM) for storage and needed not to be diluted prior to use. […]. Then, 200 μL of 5 μM ThT in 50 mM glycine-NaOH buffer (pH 8.0) was added, and the percent inhibition was calculated by the method same as that of AChE-induced Aβ1–42 experiment.

[5] = tested on: human neuroblastoma SH-SY5Y cells; assay: Cytotoxicity on SH-SY5Y cells (MTT assay); format: cell-based; details: 12.5–100 µM, 24 h
Procedure: The cytotoxicity of test compound on the human neuroblastoma SH-SY5Y cells was evaluated by MTT assay. The SH-SY5Y cells were grown in a 1:1 mixture of Eagle's minimum essential medium (EMEM) and ham's F-12 medium supplemented with 10% foetal bovine serum (FBS), 100 U/mL penicillin and […] streptomycin in 5% CO2 at 37 °C. For assay, cells were seeded into 96-well plates at a density of 10000 cells/well and treated with compound 4c for 24 h. After this treatment, 20 μL of MTT at 37 °C was added. Four hours later, the medium was removed, and 200 μL of DMSO was added to dissolve the formazan crystal formed. The absorbance was measured using a microculture plate reader with a test wavelength of 570 nm and a reference wavelength of 630 nm. Results are expressed as the mean ± SD of three independent experiments.

[6] = tested on: Kunming mice; assay: Acute oral toxicity study; format: in vivo; details: oral, 625, 1250 and 2500 mg/kg, observed 14 days
Procedure: A total of 40 Kunming mice (half male and half female) were used to determine the acute toxicity of compound 4c[31]^,[32]. All mice weighting 18–25 g were obtained from Hunan SJA Laboratory Animal Co., Ltd. and randomly divided into corresponding groups. They were maintained under a 12 h light/dark cycle and allowed free access to tap water and standard laboratory chow. The room was maintained at temperature of 23 ± 2 °C with a relative humidity of 55 ± 5%. Prior to dosing, all animals were acclimated to this environment for 5 days. Compound 4c was suspended in 0.5% carboxymethyl cellulose sodium (CMC-Na) salt solution and given via oral administration to the divided experimental groups (0, 625, 1250 and 2500 mg/kg, n = 10 per group). After administration, animals were observed continuously for the first 4 h for any abnormal behavioural changes or deaths, then intermittently for the next 24 h, and occasionally thereafter for 14 days for the onset of any delayed effects. On the 14th day, all mice were sacrificed after being anaesthetized by ether, and the possible toxic damage to liver, heart and kidneys was examined macroscopically.

[7] = from PAMPA-BBB Pe
Procedure: (§2) Afterwards, the acceptor filter plate was carefully placed on the donor plate to make the coated membrane touch both donor solution and acceptor buffer. […] Pe was calculated by the following expression: Pe = {−VdVa/[(Vd + Va)At]}ln (1-drugacceptor/drugequilibrium), where Vd is the volume of donor well, Va is volume in acceptor well, A is the filter area, t is the permeation time, drugacceptor is the absorbance obtained in the acceptor well and drugequilibrium is the theoretical equilibrium absorbance. Each compound was analysed at five wavelengths in four wells at least three independent runs, and the results were expressed as mean ± SD.

[8] = in vitro; details: PAMPA
Procedure: as §2

[9] = biological target: T5, hAChE (Homo sapiens, UniProt P22303); assay: Kinetic study of hAChE inhibition (Lineweaver-Burk); format: biochemical; set-up: Acetylcholinesterase (AChE, from electric eel and human erythrocytes); purchased Sigma-Aldrich (St. Louis, MO, USA)
Procedure: To determine the inhibition mechanism of present compounds, compound 4c was taken for kinetic analysis by Ellman’s method. Three concentrations of 4c were selected for the study, and hAChE was chosen as enzyme source. Following a similar method mentioned above in enzyme inhibition assay, Lineweaver–Burk reciprocal plots were constructed by plotting 1/velocity against 1/[substrate] at varying concentrations of the substrate acetylthiocholine (0.05 – 0.5 mM). All measurements were performed in triplicate and data analysis was performed with Graph Pad Prism 4.03 software (San Diego, CA, USA).

[10] = biological target: T5, hAChE; assay: In vitro inhibition of hAChE (Ellman method); format: biochemical; set-up: Acetylcholinesterase (AChE, from electric eel and human erythrocytes); purchased Sigma-Aldrich (St. Louis, MO, USA); host or cells: human erythrocytes
Procedure: as §1

T5 sequence (P22303 32-617 isoform P22303-2 limits assumed): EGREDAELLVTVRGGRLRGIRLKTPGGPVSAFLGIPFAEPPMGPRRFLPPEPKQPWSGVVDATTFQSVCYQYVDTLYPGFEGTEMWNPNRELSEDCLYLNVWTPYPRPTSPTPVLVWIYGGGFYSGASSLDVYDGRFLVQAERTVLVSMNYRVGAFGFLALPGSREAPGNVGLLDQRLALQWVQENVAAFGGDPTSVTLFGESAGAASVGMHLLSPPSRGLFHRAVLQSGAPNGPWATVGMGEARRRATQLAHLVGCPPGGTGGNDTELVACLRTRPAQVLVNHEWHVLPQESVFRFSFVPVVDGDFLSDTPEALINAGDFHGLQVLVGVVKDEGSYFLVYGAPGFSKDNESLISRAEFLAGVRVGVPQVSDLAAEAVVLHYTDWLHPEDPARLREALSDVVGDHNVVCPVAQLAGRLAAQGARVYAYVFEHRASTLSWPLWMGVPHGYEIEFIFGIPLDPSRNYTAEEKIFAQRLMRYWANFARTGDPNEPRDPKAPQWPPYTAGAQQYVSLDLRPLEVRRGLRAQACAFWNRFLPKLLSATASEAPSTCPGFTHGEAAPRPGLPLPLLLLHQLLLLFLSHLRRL
T1 sequence (O42275 24-633): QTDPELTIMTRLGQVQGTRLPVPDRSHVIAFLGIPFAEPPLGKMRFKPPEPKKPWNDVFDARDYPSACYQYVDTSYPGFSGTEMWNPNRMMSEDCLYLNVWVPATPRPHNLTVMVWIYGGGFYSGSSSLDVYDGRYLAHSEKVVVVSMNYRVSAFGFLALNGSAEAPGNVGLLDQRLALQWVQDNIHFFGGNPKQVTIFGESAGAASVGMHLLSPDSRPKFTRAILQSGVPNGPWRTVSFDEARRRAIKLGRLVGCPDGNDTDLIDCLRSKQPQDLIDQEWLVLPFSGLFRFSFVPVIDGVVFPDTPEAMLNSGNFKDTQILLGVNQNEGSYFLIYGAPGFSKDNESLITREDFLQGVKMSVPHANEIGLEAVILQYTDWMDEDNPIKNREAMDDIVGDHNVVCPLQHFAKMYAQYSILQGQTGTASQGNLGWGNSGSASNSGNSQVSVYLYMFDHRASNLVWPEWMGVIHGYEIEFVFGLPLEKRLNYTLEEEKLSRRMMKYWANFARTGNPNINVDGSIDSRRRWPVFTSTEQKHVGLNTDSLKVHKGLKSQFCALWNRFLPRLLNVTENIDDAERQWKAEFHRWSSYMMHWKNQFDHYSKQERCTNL
T3 sequence (O42275 24-633): as above
T2 sequence (P81908 whole entry): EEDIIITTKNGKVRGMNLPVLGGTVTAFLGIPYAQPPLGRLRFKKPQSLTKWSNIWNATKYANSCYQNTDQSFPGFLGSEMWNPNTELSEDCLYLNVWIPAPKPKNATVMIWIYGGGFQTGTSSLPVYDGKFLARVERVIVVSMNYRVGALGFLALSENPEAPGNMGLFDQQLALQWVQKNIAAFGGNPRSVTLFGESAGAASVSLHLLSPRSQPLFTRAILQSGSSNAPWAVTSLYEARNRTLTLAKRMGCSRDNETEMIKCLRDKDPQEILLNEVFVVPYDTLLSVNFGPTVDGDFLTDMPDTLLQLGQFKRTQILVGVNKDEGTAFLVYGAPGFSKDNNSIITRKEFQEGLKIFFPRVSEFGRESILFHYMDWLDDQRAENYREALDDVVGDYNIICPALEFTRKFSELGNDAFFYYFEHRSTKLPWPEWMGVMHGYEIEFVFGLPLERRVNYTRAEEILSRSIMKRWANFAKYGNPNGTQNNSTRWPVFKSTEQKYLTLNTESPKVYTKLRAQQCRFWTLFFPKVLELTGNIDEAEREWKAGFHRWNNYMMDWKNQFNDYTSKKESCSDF
T4 sequence (P05067 672-713): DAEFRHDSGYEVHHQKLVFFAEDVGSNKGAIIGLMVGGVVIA

O=c1ccc2ccc(OCCCCSC(=S)N3CCCCC3)cc2[nH]1 [4c, 4-((2-oxo-1,2-dihydroquinolin-7-yl)oxy)butyl piperidine-1-carbodithioate]
IC50 [1]: 220 ± 30 nM
times more potent than galanthamine on AChE ([1]; ratio of eeAChE IC50 values): 7.5 times
inhibition at 10 µM [2]: 45.4 ± 8.34%
inhibition at 100 µM [3]: 29 ± 2.06%
inhibition at 25 µM [4]: 30.7 ± 6.54%
effect on cell viability (cytotoxicity) [5]: did not show a significant effect on cell viability; also recorded: negligible toxicity; also recorded: no toxicity
acute toxicity [6]: no evident toxicity signs; also recorded: no significant acute toxicity; also recorded: well tolerated
Prediction of penetration into CNS [7]: CNS+ (CNS + is predicted as high BBB permeation with Pe (×10^6 cm/s) > 3.33)
Papp at 18 h, 25 μg/mL [8]: 8.91 ± 2.03 ×10⁻⁶ cm/s
type of inhibition ([9]; Lineweaver-Burk plots, hAChE, 0.1, 0.2, 0.4 μM inhibitor): mixed-type inhibitor; also recorded: mixed-type inhibition
Ki ([9]; replots of slope versus concentration of 4c, hAChE, read-out: competitive inhibition constant Ki): 225 nM
IC50 [10]: 160 ± 20 nM
fold more potent on hAChE than tacrine ([10]; ratio of hAChE IC50 values): ~3 fold
